Values of other authors in US12133847B2, “Pharmaceutical composition and preparation method therefor” (Shenzhen Pharmacin Co., Ltd., priority 2014, dated 2024).
Structures can show the parent of a compound that is named as a salt. Where two headings read alike, the source gives them in different places.

How the values were obtained:
[1] = in vivo

Solubility (in acidic media) | Solubility (in neutral and alkaline media) | Solubility (physiological conditions, in the intestine near pH 7.0) | Oral bioavailability [1] | SMILES
high solubility | very poor solubility | substantially insoluble | – | CCCCCCOC(=O)NC(=N)c1ccc(NCc2nc3cc(C(=O)N(CCC(=O)OCC)c4ccccn4)ccc3n2C)cc1 [Dabigatran etexilate mesylate, dabigatran etexilate mesylate]
– | – | – | very low oral bioavailability | [H]/N=C(/N)c1ccc(NCc2nc3cc(C(=O)N(CCC(=O)O)c4ccccn4)ccc3n2C)cc1 [dabigatran]
